Experimental data as given in patent US11607446B2, “Personalized immunotherapy against several neuronal and brain tumors” (Immatics Biotechnologies GmbH, priority 2013, dated 2023).

What was measured:
[1] = tested on: CD8+ T cells; assay: In vitro immunogenicity of HLA-A*24 class I peptides: in vitro T-cell priming with aAPCs loaded with peptide/MHC complexes and anti-CD28 antibody, pMHC multimer readout; format: cell-based, human; settings: for Wells: share of positive wells in the in vitro immunogenicity experiments
Description: In order to obtain information regarding the immunogenicity of the TUMAPs of the present invention, we performed investigations using an in vitro T-cell priming assay based on repeated stimulations of CD8+ T cells with artificial antigen presenting cells (aAPCs) loaded with peptide/MHC complexes and anti-CD28 antibody.
Isolated CD8+ lymphocytes or PBMCs were incubated until use in T-cell medium (TCM) consisting of RPMI-Glutamax (Invitrogen, Karlsruhe, Germany) supplemented with 10% heat inactivated human AB serum (PAN-Biotech, Aidenbach, Germany), 100 U/ml Penicillin/100 μg/ml Streptomycin (Cambrex, Cologne, Germany), 1 mM sodium pyruvate (CC Pro, Oberdorla, Germany), 20 μg/ml Gentamycin (Cambrex). 2.5 ng/ml IL-7 (PromoCell, Heidelberg, Germany) and 10 U/ml IL-2 (Novartis Pharma, Nurnberg, Germany) were also added to the TCM at this step. Generation of pMHC/anti-CD28 coated beads, T-cell stimulations and readout was performed in a highly defined in vitro system using four different pMHC molecules per stimulation condition and 8 different pMHC molecules per readout condition. All pMHC complexes used for aAPC loading and cytometric readout were derived from UV-induced MHC ligand exchange with minor modifications. In order to determine the amount of pMHC monomer obtained by exchange we performed streptavidin-based sandwich ELISAs according to (Rodenko et al., 2006). The purified co-stimulatory mouse IgG2a anti human CD28 Ab 9.3 (Jung et al., 1987) was chemically biotinylated using Sulfo-N-hydroxysuccinimidobiotin as recommended by the manufacturer (Perbio, Bonn, Germany). Beads used were 5.6 μm diameter streptavidin coated polystyrene particles (Bangs Laboratories, Illinois, USA).
800.000 beads/200 μl were coated in 96-well plates in the presence of 4×12.5 ng different biotin-pMHC, washed and 600 ng biotin anti-CD28 were added subsequently in a volume of 200 μl. Stimulations were initiated in 96-well plates by co-incubating 1×10^6 CD8+ T cells with 2×10^5 washed coated beads in 200 μl TCM supplemented with 5 ng/ml IL-12 (PromoCell) for 3-4 days at 37° C. Half of the medium was then exchanged by fresh TCM supplemented with 80 U/ml IL-2 and incubating was continued for 3-4 days at 37° C. This stimulation cycle was performed for a total of three times, with 12 individual wells per condition For the pMHC multimer readout using 8 different pMHC molecules per condition, a two-dimensional combinatorial coding approach was used as previously described (Andersen et al., 2012) with minor modifications encompassing coupling to 5 different fluorochromes. Finally, multimeric analyses were performed by staining the cells with Live/dead near IR dye (Invitrogen, Karlsruhe, Germany), CD8-FITC antibody clone SK1 (BD, Heidelberg, Germany) and fluorescent pMHC multimers. For analysis, a BD LSRII SORP cytometer equipped with appropriate lasers and filters was used. Peptide specific cells were calculated as percentage of total CD8+ cells. Evaluation of multimeric analysis was done using the FlowJo software (Tree Star, Oregon, USA). In vitro priming of specific multimer+ CD8+ lymphocytes was detected by comparison to irrelevant control stimulations.
Exemplary flow cytometry results after TUMAP-specific multimer staining for two peptides of the invention are shown in FIG. 4 together with corresponding negative controls.

[2] = tested on: CD8+ T cells; assay: In vitro immunogenicity of HLA-A*02 class I peptides: in vitro T-cell priming with aAPCs loaded with peptide/MHC complexes and anti-CD28 antibody, pMHC multimer readout; format: cell-based, human; settings: HLA-A*02 peptides
[3] = share of positive donors in the in vitro immunogenicity experiments, given as a class symbol

Substance | Donors [1, 3] | Wells ([1]; given as a class symbol) | Donors [1] | Donors ([2]; healthy donors, specific multimer+ CD8+ T-cell line after in vitro stimulation) | Wells ([2]; in vitro stimulated wells of healthy donors' CD8+ T cells, specific multimer+ readout)
AFSPDSHYLLF (listed as Homo sapiens) [ITGA7-001] | ++ (20%-49 % = ++) | + (<20% = +) | – | – | –
AYLIDIKTI (listed as Homo sapiens) [IFT17-001] | +++ (50%-70% = +++) | + (<20% = +) | – | – | –
AYPRLSLSF (listed as Homo sapiens) [GAB-001] | ++ (20%-49 % = ++) | + (<20% = +) | – | – | –
AYSDGHFLF (listed as Homo sapiens) [TENM4-001] | ++ (20%-49 % = ++) | + (<20% = +) | – | – | –
AYVLRLETL (listed as Homo sapiens) [PNMA2-001] | ++ (20%-49 % = ++) | + (<20% = +) | – | – | –
CRB 1-001 (SYFENVHGF; listed as Homo sapiens) | ++ (20%-49 % = ++) | + (<20% = +) | – | – | –
EYIRALQQL (listed as Homo sapiens) [ASCL1-001] | ++ (20%-49 % = ++) | + (<20% = +) | – | – | –
EYMKALGVGF (listed as Homo sapiens) [FABP7-002] | ++ (20%-49 % = ++) | + (<20% = +) | – | – | –
FYGPQVNNI (listed as Homo sapiens) [WASL-001] | ++++ (>70% = ++++) | + (<20% = +) | – | – | –
HYKPTPLYF (listed as Homo sapiens) [SMC4-001] | ++ (20%-49 % = ++) | + (<20% = +) | – | – | –
IFTYIHLQL (listed as Homo sapiens) [LOC72839-001] | +++ (50%-70% = +++) | + (<20% = +) | – | – | –
IYGGHHAGF (listed as Homo sapiens) [OLIG2-001] | ++ (20%-49 % = ++) | + (<20% = +) | – | – | –
KFAEEFYSF (listed as Homo sapiens) [CDCA7L-001] | ++ (20%-49 % = ++) | + (<20% = +) | – | – | –
KYFDKVVTL (listed as Homo sapiens) [KIF7-001] | ++ (20%-49 % = ++) | + (<20% = +) | – | – | –
KYFGGVLEYF (listed as Homo sapiens) [RHOBTB3-001] | ++ (20%-49 % = ++) | + (<20% = +) | – | – | –
KYFSFPGEL (listed as Homo sapiens) [SLC-002] | ++ (20%-49 % = ++) | + (<20% = +) | – | – | –
KYNEFSVSL (listed as Homo sapiens) [HEATR1-001] | +++ (50%-70% = +++) | + (<20% = +) | – | – | –
KYNLINEYF (listed as Homo sapiens) [HS2-001] | ++ (20%-49 % = ++) | + (<20% = +) | – | – | –
LYIYPQSLNF (listed as Homo sapiens) [DOCK7-002] | +++ (50%-70% = +++) | + (<20% = +) | – | – | –
MYPYIYHVL (listed as Homo sapiens) [FAM120C-001] | ++++ (>70% = ++++) | ++ (20%-49 % = ++) | 100% | – | –
NROB1-001 (AYLKGTVLF; listed as Homo sapiens) | ++ (20%-49 % = ++) | + (<20% = +) | – | – | –
NYIDNVGNLHF (listed as Homo sapiens) [LNX1-001] | ++ (20%-49 % = ++) | + (<20% = +) | – | – | –
NYKDLNGNVF (listed as Homo sapiens) [SSR1-001] | ++ (20%-49 % = ++) | + (<20% = +) | – | – | –
NYNDRYDEI (listed as Homo sapiens) [RPL-001] | ++ (20%-49 % = ++) | + (<20% = +) | – | – | –
NYQDTIGRL (listed as Homo sapiens) [VIM-002] | ++ (20%-49 % = ++) | + (<20% = +) | – | – | –
NYTSLLVTW (listed as Homo sapiens) [PTP-018] | ++++ (>70% = ++++) | + (<20% = +) | – | – | –
NYTSLLVTW^+4 (listed as Homo sapiens) [PTP-019] | ++ (20%-49 % = ++) | + (<20% = +) | – | – | –

Substance | Donors [1, 3] | Wells ([1]; given as a class symbol) | Donors [1] | Donors ([2]; healthy donors, specific multimer+ CD8+ T-cell line after in vitro stimulation) | Wells ([2]; in vitro stimulated wells of healthy donors' CD8+ T cells, specific multimer+ readout)
PFAKPLPTF (listed as Homo sapiens) [EP4-001] | ++ (20%-49 % = ++) | + (<20% = +) | – | – | –
PYLDKFFAL (listed as Homo sapiens) [DOCK7-003] | ++ (20%-49 % = ++) | + (<20% = +) | – | – | –
PYNHQHEYF (listed as Homo sapiens) [FADS2-002] | ++++ (>70% = ++++) | + (<20% = +) | – | – | –
QWAPILANF (listed as Homo sapiens) [NKA-001] | ++ (20%-49 % = ++) | + (<20% = +) | – | – | –
QYQIIMTMI (listed as Homo sapiens) [FADS2-003] | +++ (50%-70% = +++) | + (<20% = +) | – | – | –
QYVFIHDTL (listed as Homo sapiens) [PTP-015] | ++ (20%-49 % = ++) | + (<20% = +) | – | – | –
RYGPQFTL (listed as Homo sapiens) [PCD-002] | ++ (20%-49 % = ++) | + (<20% = +) | – | – | –
RYIPLIVDI (listed as Homo sapiens) [ARHGAP21-001] | ++ (20%-49 % = ++) | + (<20% = +) | – | – | –
RYLPSSVFL (listed as Homo sapiens) [ZNF749-001] | ++ (20%-49 % = ++) | + (<20% = +) | – | – | –
RYQESLGNTVF (listed as Homo sapiens) [PJA2-001] | ++ (20%-49 % = ++) | + (<20% = +) | – | – | –
RYSDGLLRF (listed as Homo sapiens) [LZTS1-001] | ++ (20%-49 % = ++) | + (<20% = +) | – | – | –
SYNPLWLRI (listed as Homo sapiens) [ASPM-002] | +++ (50%-70% = +++) | + (<20% = +) | – | – | –
TYIIKSVGF (listed as Homo sapiens) [UNKN-003] | ++ (20%-49 % = ++) | + (<20% = +) | – | – | –
TYIPPLLVAF (listed as Homo sapiens) [TMEM231-001] | +++ (50%-70% = +++) | + (<20% = +) | – | – | –
TYNYAVLKF (listed as Homo sapiens) [GPM-002] | +++ (50%-70% = +++) | + (<20% = +) | – | – | –
TYTSYLDKF (listed as Homo sapiens) [MAPK6-001] | ++ (20%-49 % = ++) | + (<20% = +) | – | – | –
TYVDSSHTI (listed as Homo sapiens) [VCAN-003] | +++ (50%-70% = +++) | + (<20% = +) | – | – | –
VLPDADTLLHF (listed as Homo sapiens) [APC-001] | ++ (20%-49 % = ++) | + (<20% = +) | – | – | –
VYDTMIEKF (listed as Homo sapiens) [PTP-016] | ++ (20%-49 % = ++) | + (<20% = +) | – | – | –
VYLKEANAI (listed as Homo sapiens) [KIF1B-001] | ++ (20%-49 % = ++) | + (<20% = +) | – | – | –
VYLTIKPLNL (listed as Homo sapiens) [EFCAB7-001] | ++ (20%-49 % = ++) | + (<20% = +) | – | – | –
VYNDIGKEMLL (listed as Homo sapiens) [KIF1B-002] | ++ (20%-49 % = ++) | + (<20% = +) | – | – | –
VYNLTQEFF (listed as Homo sapiens) [SMOX-001] | ++ (20%-49 % = ++) | + (<20% = +) | – | – | –
VYQVLQEHL (listed as Homo sapiens) [BMP7-001] | ++ (20%-49 % = ++) | + (<20% = +) | – | – | –
VYYFHPQYL (listed as Homo sapiens) [ST8SIA5-001] | ++++ (>70% = ++++) | ++ (20%-49 % = ++) | – | – | –
YQDPHSTAV (listed as Homo sapiens) [EGFR-008] | – | – | – | ++ (20%-49 % = ++) | + (<20% = +)
